Laboratory results taken from patent publication US11753407B2, “Compounds for treating spinal muscular atrophy” (PTC Therapeutics, Inc., priority 2012, dated 2023).

Experiments:
[1] = test system: SMN2 minigene mRNA (SMN2-A minigene) in HEK293H cells; test: SMN2 minigene mRNA splicing RT-qPCR assay in cultured cells; assay type: cell-based, human; conditions: Homo sapiens, HEK293-H; concentration increasing full length SMN2 mRNA 1.5-fold relative to vehicle-treated cells; HEK293H cells with SMN2-A minigene, 24 hours, 7-point concentration data; read-out: EC1.5x for production of full length SMN2 mRNA
In short: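 Cells are seeded, left to attach 4-6 h, then dosed with test compound across seven concentrations and incubated 24 h. Lysates undergo RT-qPCR with primers/probe specific to the exon 7-containing minigene transcript, co-amplified with GAPDH. Fold change over vehicle is calculated, and EC1.5× marks the 1.5-fold point.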

[2] = test system: Smn protein in SMA patient fibroblast cells (GM03813); test: Smn protein assay in cultured cells (SMN HTRF); assay type: cell-based, human; conditions: SMA patient fibroblast cells, 48 hours; for EC1.5x for Smn protein expression: 7-point concentration curve, SMN HTRF, concentration producing 1.5 times Smn protein vs DMSO vehicle control; for maximum fold (Fold) increase of Smn protein: 7-point concentration data, fold relative to vehicle control
In short: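 Patient-derived SMA fibroblasts are plated, given compound for 48 h, then lysed in RIPA buffer with protease inhibitors. Lysate Smn is detected by an anti-SMN d2/kryptate HTRF pair incubated overnight. The normalized ΔF is divided by the vehicle ΔF to give fold change, from which EC1.5× and maximum fold are taken.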

Row | SMILES | EC (1.5-fold increase) [1] [µM] | EC1.5x for Smn protein expression [2] | maximum fold (Fold) increase of Smn protein [2]
1 | Cc1cn2cc(-c3cc(=O)n4cc(N5CCN(CCO)CC5)ccc4n3)cc(F)c2n1 [Compound 801, 2-(8-fluoro-2-methylimidazo[1,2-a]pyridin-6-yl)-7-[4-(2-hydroxyethyl)piperazin-1-yl]-4H-pyrido[1,2-a]pyrimidin-4-one] | 0.1 to 0.3 | *** (an EC1.5× between >0.3 μM and ≤1 μM is indicated by three stars (***)) | ***** (a fold increase >1.65 is indicated by five stars (*****))
2 | CN1CCN(c2ccc3nc(-c4ccc5nccn5c4)cc(=O)n3c2)CC1 [Compound 802, 2-(imidazo[1,2-a]pyridin-6-yl)-7-(4-methylpiperazin-1-yl)-4H-pyrido[1,2-a]pyrimidin-4-one] | 1 to 3 | * (An EC1.5× for Smn protein expression between >3 μM and ≤10 μM is indicated by one star (*)) | ***** (a fold increase >1.65 is indicated by five stars (*****))
3 | Cc1nc2c(F)cc(-c3cc(=O)n4cc(N5CCN6CCC[C@H]6C5)ccc4n3)cc2o1 [Compound 803, 2-(4-fluoro-2-methyl-1,3-benzoxazol-6-yl)-7-[(8aS)-hexahydropyrrolo[1,2-a]pyrazin-2(1H)-yl]-4H-pyrido[1,2-a]pyrimidin-4-one] | < 0.1 | **** (an EC1.5x≤0.3 μM is indicated by four stars (****)) | ***** (a fold increase >1.65 is indicated by five stars (*****))
4 | Cc1cn2nc(-c3cc(=O)n4cc(N5CCC6(CC5)CNC6)ccc4n3)cc2c(C)n1 [Compound 804, 7-(2,7-diazaspiro[3.5]non-7-yl)-2-(4,6-dimethylpyrazolo[1,5-a]pyrazin-2-yl)-4H-pyrido[1,2-a]pyrimidin-4-one] | < 0.1 | **** (an EC1.5x≤0.3 μM is indicated by four stars (****)) | ***** (a fold increase >1.65 is indicated by five stars (*****))
5 | Cc1nc2ccc(-c3cc(=O)n4cc(N5CCN(C)CC5)ccc4n3)cn2n1 [Compound 805, 7-(4-methylpiperazin-1-yl)-2-(2-methyl[1,2,4]triazolo[1,5-a]pyridin-6-yl)-4H-pyrido[1,2-a]pyrimidin-4-one] | 0.1 to 0.3 | *** (an EC1.5× between >0.3 μM and ≤1 μM is indicated by three stars (***)) | ***** (a fold increase >1.65 is indicated by five stars (*****))
6 | Cc1cn2cc(-c3cc(=O)n4cc(N5CCN(C)CC5)ccc4n3)cc(C(F)(F)F)c2n1 [Compound 806, 7-(4-methylpiperazin-1-yl)-2-[2-methyl-8-(trifluoromethyl)imidazo[1,2-a]pyridin-6-yl]-4H-pyrido[1,2-a]pyrimidin-4-one] | < 0.1 | **** (an EC1.5x≤0.3 μM is indicated by four stars (****)) | ***** (a fold increase >1.65 is indicated by five stars (*****))
7 | Cc1cn2cc(-c3cc(=O)n4cc(N5CCN(C)CC5)ccc4n3)cc(C#N)c2n1 [Compound 807, 2-methyl-6-[7-(4-methylpiperazin-1-yl)-4-oxo-4H-pyrido[1,2-a]pyrimidin-2-yl]imidazo[1,2-a]pyridine-8-carbonitrile] | < 0.1 | **** (an EC1.5x≤0.3 μM is indicated by four stars (****)) | ***** (a fold increase >1.65 is indicated by five stars (*****))
8 | Cc1cn2cc(-c3cc(=O)n4cc(N5CCN(C)CC5)ccc4n3)cc(C)c2n1 [Compound 808, 2-(2,8-dimethylimidazo[1,2-a]pyridin-6-yl)-7-(4-methylpiperazin-1-yl)-4H-pyrido[1,2-a]pyrimidin-4-one] | < 0.1 | **** (an EC1.5x≤0.3 μM is indicated by four stars (****)) | ***** (a fold increase >1.65 is indicated by five stars (*****))
9 | Cc1cn2cc(-c3cc(=O)n4cc(N5CCNC6(CC6)C5)ccc4n3)cc(C)c2n1 [Compound 809, 7-(4,7-diazaspiro[2.5]oct-7-yl)-2-(2,8-dimethylimidazo[1,2-a]pyridin-6-yl)-4H-pyrido[1,2-a]pyrimidin-4-one] | < 0.1 | **** (an EC1.5x≤0.3 μM is indicated by four stars (****)) | ***** (a fold increase >1.65 is indicated by five stars (*****))
10 | Cc1cn2cc(-c3cc(=O)n4cc(C5CCN(C)CC5)ccc4n3)cc(F)c2n1 [Compound 810, 2-(8-fluoro-2-methylimidazo[1,2-a]pyridin-6-yl)-7-(1-methylpiperidin-4-yl)-4H-pyrido[1,2-a]pyrimidin-4-one] | < 0.1 | **** (an EC1.5x≤0.3 μM is indicated by four stars (****)) | ***** (a fold increase >1.65 is indicated by five stars (*****))
11 | Cc1cn2cc(-c3cc(=O)n4cc(C5(O)CCNCC5)ccc4n3)cc(F)c2n1 [Compound 811, 2-(8-fluoro-2-methylimidazo[1,2-a]pyridin-6-yl)-7-(4-hydroxypiperidin-4-yl)-4H-pyrido[1,2-a]pyrimidin-4-one] | 0.3 to 1 | *** (an EC1.5× between >0.3 μM and ≤1 μM is indicated by three stars (***)) | ***** (a fold increase >1.65 is indicated by five stars (*****))
12 | CCc1nc(C)cn2nc(-c3cc(=O)n4cc(N5CCN6CCC[C@H]6C5)ccc4n3)cc12 [Compound 812, 2-(4-ethyl-6-methylpyrazolo[1,5-a]pyrazin-2-yl)-7-[(8aS)-hexahydropyrrolo[1,2-a]pyrazin-2(1H)-yl]-4H-pyrido[1,2-a]pyrimidin-4-one] | < 0.1 | **** (an EC1.5x≤0.3 μM is indicated by four stars (****)) | ***** (a fold increase >1.65 is indicated by five stars (*****))
13 | CCc1nc(C)cn2nc(-c3cc(=O)n4cc(N5CCN6CCC[C@@H]6C5)ccc4n3)cc12 [Compound 813, 2-(4-ethyl-6-methylpyrazolo[1,5-a]pyrazin-2-yl)-7-[(8aR)-hexahydropyrrolo[1,2-a]pyrazin-2(1H)-yl]-4H-pyrido[1,2-a]pyrimidin-4-one] | < 0.1 | **** (an EC1.5x≤0.3 μM is indicated by four stars (****)) | ***** (a fold increase >1.65 is indicated by five stars (*****))
14 | CCc1nc(C)cn2nc(-c3cc(=O)n4cc(N5CC[C@@H](N(C)C)C5)ccc4n3)cc12 [Compound 814, 7-[(3R)-3-(dimethylamino)pyrrolidin-1-yl]-2-(4-ethyl-6-methylpyrazolo[1,5-a]pyrazin-2-yl)-4H-pyrido[1,2-a]pyrimidin-4-one] | < 0.1 | **** (an EC1.5x≤0.3 μM is indicated by four stars (****)) | ***** (a fold increase >1.65 is indicated by five stars (*****))
15 | CCc1nc(C)cn2nc(-c3cc(=O)n4cc(N5CC[C@H](N(C)C)C5)ccc4n3)cc12 [Compound 815, 7-[(3S)-3-(dimethylamino)pyrrolidin-1-yl]-2-(4-ethyl-6-methylpyrazolo[1,5-a]pyrazin-2-yl)-4H-pyrido[1,2-a]pyrimidin-4-one] | < 0.1 | **** (an EC1.5x≤0.3 μM is indicated by four stars (****)) | ***** (a fold increase >1.65 is indicated by five stars (*****))
16 | Cc1cn2cc(-c3cc(=O)n4cc(N5CCN6CCC[C@@]6(C)C5)ccc4n3)cc(F)c2n1 [Compound 816, 2-(8-fluoro-2-methylimidazo[1,2-a]pyridin-6-yl)-7-[(8aS)-8a-methylhexahydropyrrolo[1,2-a]pyrazin-2(1H)-yl]-4H-pyrido[1,2-a]pyrimidin-4-one] | < 0.1 | **** (an EC1.5x≤0.3 μM is indicated by four stars (****)) | **** (a fold increase between >1.5 and ≤1.65 is indicated by four stars (****))
17 | CCc1nc(C)cn2nc(-c3cc(=O)n4cc(N5CCN(CC)CC5)cc(C)c4n3)cc12 [Compound 817, 2-(4-ethyl-6-methylpyrazolo[1,5-a]pyrazin-2-yl)-7-(4-ethylpiperazin-1-yl)-9-methyl-4H-pyrido[1,2-a]pyrimidin-4-one] | < 0.1 | **** (an EC1.5x≤0.3 μM is indicated by four stars (****)) | ***** (a fold increase >1.65 is indicated by five stars (*****))
18 | CCc1nc(C)cn2nc(-c3cc(=O)n4cc(N5CCN6CCC[C@H]6C5)cc(C)c4n3)cc12 [Compound 818, 2-(4-ethyl-6-methylpyrazolo[1,5-a]pyrazin-2-yl)-7-[(8aS)-hexahydropyrrolo[1,2-a]pyrazin-2(1H)-yl]-9-methyl-4H-pyrido[1,2-a]pyrimidin-4-one] | 0.1 to 0.3 | *** (an EC1.5× between >0.3 μM and ≤1 μM is indicated by three stars (***)) | ***** (a fold increase >1.65 is indicated by five stars (*****))
